Measured values from paper PMC9851200, “Multiparameter phenotypic screening for endogenous TFEB and TFE3 translocation identifies novel chemical series modulating lysosome function” (Autophagy, 2022).
Read-outs that look alike come from different tables or passages of the source.

Key:
[1] = target: TGFBR2 (Homo sapiens, UniProt P37173); assay: KINOMEscan TGFBR2; assay type: binding; settings: NEW KINOMEscan
[2] = target: CIT (Homo sapiens, UniProt O14578); assay: KINOMEscan CIT; assay type: binding; settings: NEW KINOMEscan
[3] = target: kinases (KINOMEscan panel) (Homo sapiens, UniProt P78362); assay type: binding; settings: SRPK2; NEW KINOMEscan
Chain of kinases (KINOMEscan panel) (P78362 whole entry): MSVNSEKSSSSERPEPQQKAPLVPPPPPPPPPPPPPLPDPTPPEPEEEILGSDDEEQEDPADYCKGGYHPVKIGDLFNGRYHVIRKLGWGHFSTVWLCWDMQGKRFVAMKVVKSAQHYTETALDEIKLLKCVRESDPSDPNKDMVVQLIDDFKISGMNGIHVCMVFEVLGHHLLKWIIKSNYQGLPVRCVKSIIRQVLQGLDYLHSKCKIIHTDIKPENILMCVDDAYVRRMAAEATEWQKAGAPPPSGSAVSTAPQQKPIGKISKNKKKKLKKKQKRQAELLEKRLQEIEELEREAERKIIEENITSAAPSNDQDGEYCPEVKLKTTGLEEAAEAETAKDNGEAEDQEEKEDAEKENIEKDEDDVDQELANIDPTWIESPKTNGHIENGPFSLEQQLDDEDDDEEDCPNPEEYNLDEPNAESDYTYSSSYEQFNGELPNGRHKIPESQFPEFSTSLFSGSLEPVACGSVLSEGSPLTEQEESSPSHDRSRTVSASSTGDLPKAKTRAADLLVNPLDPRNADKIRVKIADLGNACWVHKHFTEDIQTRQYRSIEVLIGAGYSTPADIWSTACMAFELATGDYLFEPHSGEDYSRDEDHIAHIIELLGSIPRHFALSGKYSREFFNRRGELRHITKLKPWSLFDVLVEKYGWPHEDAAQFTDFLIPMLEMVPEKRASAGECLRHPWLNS

[4] = target: BMPR1B (Homo sapiens, UniProt O00238); assay: KINOMEscan BMPR1B; assay type: binding; settings: NEW KINOMEscan
Chain of BMPR1B (O00238 14-502): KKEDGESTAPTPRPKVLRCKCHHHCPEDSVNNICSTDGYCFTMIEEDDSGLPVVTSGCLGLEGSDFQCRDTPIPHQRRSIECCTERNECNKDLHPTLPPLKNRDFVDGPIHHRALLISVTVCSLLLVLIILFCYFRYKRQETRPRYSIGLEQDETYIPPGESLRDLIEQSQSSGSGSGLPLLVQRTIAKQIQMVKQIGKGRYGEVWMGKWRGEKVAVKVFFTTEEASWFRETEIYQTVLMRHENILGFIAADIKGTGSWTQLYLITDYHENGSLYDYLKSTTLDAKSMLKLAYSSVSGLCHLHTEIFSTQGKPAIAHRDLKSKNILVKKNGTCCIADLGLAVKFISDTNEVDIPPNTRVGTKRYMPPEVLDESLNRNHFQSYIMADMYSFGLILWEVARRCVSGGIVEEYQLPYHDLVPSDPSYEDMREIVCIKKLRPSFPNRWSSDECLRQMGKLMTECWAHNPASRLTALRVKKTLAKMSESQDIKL

[5] = target: T1, CSNK1E (Homo sapiens, UniProt P49674); assay: KINOMEscan CSNK1E; assay type: binding; settings: NEW KINOMEscan
T1 sequence (P49674 whole entry): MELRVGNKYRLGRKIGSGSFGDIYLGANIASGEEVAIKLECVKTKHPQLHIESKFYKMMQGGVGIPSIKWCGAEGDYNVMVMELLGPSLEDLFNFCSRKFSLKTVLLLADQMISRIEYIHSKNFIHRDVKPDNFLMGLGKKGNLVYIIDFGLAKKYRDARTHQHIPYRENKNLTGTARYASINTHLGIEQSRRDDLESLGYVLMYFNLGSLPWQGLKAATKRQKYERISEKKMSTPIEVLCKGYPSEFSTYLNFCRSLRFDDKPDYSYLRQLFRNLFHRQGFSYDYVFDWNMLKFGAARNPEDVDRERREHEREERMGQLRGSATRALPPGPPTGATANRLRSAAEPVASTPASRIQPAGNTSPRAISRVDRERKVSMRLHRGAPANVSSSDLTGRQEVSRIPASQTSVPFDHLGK

[6] = system: TFEB or TFE3; assay: EC50 line in the head of Table S5 (cellular activity of the analogs, assay not given); assay type: cell-based; settings: assay not named, unit printed only in the first two cells
Description: Figure S5. Activity of quinazoline analogs. […] Compounds were screen at 24-h treatment time up to 5 µM concentration. Data for each compound is represented on single graphs with their structures shown. n=1 for all above assays, mean±s.d. (B) Representative western blot of TFEB levels following treatment of compounds followed by fractionation into cytoplasmic (C) and nuclear (N) compartments. Successful fractionation represented by enrichment of GAPDH in the cytoplasmic fraction and LMNA (lamin A/C) in the nuclear compartment. (C) The levels of nuclear/cytoplasmic TFEB were quantified and presented as a ratio. A paired one-way ANOVA with a Holm-Šídák's multiple comparisons test was performed relative to DMSO for comparison between each compound treatments (n=3).

[7] = target: MINK1/MINK (Homo sapiens, UniProt Q8N4C8); settings: cited from earlier work
[8] = system: ALK5/TGFBR1; settings: cited from earlier work
[9] = target: T2, PRKD3 (Homo sapiens, UniProt O94806); settings: cited from earlier work
T2 sequence (O94806 1-890): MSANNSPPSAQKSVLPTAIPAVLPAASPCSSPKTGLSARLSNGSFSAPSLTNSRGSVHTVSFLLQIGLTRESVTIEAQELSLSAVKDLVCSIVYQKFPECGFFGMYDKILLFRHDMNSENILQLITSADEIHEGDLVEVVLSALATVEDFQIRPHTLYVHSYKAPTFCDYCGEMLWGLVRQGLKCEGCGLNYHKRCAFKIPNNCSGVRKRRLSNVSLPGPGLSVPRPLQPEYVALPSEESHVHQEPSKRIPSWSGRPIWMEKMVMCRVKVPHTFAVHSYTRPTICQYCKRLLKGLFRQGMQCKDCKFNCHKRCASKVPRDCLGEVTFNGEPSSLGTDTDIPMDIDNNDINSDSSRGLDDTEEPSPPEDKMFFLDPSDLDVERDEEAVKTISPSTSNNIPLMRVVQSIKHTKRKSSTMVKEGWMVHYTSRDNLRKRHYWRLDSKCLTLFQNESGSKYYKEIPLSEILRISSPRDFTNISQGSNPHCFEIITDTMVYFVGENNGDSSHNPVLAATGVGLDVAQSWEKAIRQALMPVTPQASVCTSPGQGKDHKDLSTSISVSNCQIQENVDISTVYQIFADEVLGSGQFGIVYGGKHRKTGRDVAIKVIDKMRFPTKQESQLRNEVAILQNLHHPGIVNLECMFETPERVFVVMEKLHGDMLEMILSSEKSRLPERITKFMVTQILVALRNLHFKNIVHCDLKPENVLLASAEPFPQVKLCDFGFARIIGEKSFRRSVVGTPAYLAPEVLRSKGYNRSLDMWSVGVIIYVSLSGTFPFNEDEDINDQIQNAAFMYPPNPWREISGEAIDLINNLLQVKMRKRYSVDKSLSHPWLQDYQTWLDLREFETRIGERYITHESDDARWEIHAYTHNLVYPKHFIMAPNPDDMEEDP

[10] = target: MAPK10/JNK3 (Homo sapiens, UniProt P53779); settings: cited from earlier work
[11] = target: MAPK9/JNK2 (Homo sapiens, UniProt P45984); settings: cited from earlier work
[12] = target: MTOR (Homo sapiens, UniProt P42345); settings: cited from earlier work
[13] = target: CDC42BPB/MRCKB (Homo sapiens, UniProt Q9Y5S2); settings: cited from earlier work
Chain of CDC42BPB/MRCKB (Q9Y5S2 whole entry): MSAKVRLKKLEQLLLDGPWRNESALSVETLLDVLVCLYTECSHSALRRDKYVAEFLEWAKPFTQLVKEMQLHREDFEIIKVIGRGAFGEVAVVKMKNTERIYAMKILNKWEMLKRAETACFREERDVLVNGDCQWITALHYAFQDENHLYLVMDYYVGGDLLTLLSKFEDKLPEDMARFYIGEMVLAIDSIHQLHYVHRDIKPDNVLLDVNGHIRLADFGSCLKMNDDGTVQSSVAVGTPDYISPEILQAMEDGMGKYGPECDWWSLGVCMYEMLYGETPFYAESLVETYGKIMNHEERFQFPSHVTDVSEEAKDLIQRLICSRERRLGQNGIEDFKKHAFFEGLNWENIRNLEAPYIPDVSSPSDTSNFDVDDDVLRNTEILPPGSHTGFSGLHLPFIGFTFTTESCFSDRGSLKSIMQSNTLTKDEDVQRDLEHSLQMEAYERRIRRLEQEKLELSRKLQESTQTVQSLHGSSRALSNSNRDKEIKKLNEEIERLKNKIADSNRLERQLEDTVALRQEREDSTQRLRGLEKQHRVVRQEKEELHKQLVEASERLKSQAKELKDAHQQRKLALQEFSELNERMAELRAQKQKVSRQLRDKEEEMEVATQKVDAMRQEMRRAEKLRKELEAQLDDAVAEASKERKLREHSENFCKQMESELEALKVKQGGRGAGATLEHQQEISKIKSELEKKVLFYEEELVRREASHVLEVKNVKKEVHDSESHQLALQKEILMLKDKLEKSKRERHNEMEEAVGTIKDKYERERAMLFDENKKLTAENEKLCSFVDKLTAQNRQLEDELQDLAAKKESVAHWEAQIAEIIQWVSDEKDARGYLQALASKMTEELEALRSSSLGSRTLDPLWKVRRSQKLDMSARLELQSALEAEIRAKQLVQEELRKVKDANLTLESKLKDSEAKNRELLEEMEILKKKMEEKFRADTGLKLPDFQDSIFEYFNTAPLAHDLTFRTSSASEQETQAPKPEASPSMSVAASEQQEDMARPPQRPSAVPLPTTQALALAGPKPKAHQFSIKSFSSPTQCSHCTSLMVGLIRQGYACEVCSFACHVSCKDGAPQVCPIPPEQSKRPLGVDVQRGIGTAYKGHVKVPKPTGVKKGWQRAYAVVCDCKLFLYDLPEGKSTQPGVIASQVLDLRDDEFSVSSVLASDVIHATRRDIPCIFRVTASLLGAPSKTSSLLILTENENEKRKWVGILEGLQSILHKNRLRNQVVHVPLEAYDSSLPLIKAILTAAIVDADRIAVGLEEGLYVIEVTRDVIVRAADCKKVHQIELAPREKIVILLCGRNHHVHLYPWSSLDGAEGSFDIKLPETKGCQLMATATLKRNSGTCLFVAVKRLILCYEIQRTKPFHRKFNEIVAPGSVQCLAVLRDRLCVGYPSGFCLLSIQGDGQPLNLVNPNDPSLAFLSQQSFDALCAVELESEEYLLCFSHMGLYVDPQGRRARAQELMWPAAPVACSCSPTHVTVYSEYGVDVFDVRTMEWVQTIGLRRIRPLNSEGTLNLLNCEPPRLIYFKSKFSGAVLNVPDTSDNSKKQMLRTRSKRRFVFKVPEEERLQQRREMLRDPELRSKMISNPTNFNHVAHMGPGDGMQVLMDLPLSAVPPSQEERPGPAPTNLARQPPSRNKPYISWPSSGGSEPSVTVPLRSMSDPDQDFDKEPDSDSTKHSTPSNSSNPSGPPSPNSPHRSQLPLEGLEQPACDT

[14] = target: T3, TGFBR1 (Homo sapiens, UniProt P36897); settings: cited from earlier work
T3 sequence (P36897 34-503): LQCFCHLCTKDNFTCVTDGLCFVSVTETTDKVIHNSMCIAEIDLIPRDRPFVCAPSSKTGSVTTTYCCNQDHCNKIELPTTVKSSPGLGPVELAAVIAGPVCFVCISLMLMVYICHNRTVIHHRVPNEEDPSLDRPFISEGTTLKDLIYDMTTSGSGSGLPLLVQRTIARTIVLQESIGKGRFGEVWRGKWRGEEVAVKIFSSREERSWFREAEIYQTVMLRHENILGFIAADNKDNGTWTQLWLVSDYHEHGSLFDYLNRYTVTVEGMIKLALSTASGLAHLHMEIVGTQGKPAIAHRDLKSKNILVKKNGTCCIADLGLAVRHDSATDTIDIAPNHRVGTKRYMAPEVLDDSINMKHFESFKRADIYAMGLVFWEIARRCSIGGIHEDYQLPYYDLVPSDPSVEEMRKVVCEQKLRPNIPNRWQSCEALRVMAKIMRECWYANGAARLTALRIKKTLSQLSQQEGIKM

[15] = target: CDC42BPG/DMPK2 (Homo sapiens, UniProt Q6DT37); settings: cited from earlier work
Chain of CDC42BPG/DMPK2 (Q6DT37 whole entry): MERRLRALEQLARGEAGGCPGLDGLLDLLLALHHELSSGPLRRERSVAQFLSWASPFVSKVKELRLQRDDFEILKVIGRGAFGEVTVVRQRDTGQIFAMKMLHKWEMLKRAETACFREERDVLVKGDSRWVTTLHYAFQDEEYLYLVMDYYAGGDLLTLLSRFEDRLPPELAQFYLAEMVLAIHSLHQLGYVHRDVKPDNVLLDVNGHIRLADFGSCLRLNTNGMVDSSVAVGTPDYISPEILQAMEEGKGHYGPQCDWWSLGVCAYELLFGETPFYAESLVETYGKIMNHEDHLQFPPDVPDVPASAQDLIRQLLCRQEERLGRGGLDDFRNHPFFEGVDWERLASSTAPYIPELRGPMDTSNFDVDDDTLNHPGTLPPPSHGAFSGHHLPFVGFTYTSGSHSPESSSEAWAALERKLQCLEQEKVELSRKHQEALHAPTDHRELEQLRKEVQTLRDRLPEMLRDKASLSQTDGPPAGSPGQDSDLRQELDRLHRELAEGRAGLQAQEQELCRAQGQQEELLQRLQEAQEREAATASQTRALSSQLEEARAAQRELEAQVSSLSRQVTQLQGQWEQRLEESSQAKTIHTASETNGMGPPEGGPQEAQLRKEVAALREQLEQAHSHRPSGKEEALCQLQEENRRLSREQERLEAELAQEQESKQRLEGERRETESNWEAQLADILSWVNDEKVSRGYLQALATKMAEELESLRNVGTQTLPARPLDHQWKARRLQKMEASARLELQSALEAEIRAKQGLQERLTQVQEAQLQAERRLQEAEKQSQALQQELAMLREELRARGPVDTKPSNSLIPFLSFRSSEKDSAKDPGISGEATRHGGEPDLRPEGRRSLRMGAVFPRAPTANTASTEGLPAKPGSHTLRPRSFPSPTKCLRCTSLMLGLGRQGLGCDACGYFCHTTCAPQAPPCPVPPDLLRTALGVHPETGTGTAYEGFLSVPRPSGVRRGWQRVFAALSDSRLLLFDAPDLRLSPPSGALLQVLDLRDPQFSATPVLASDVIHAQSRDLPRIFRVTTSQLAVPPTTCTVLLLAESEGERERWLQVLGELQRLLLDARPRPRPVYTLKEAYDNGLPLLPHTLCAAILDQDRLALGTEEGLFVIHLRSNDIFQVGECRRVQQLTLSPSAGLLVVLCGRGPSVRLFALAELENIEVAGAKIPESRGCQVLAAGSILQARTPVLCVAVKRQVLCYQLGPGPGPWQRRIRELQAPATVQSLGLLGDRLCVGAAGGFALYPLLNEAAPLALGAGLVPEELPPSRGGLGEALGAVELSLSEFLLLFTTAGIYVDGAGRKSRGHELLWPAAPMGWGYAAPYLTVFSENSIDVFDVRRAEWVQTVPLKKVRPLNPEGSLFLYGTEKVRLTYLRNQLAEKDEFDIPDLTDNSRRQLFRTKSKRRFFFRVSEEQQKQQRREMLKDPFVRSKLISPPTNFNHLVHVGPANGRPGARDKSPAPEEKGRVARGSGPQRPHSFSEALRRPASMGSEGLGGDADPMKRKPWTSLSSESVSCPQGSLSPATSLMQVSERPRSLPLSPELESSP

[16] = target: STK10/LOK (Homo sapiens, UniProt O94804); settings: cited from earlier work
[17] = target: T1, CSNK1E; settings: cited from earlier work

Compound	TGFBR1 binding [8]	KINOMEscan binding PRKD3 [9]	KINOMEscan binding MTOR [12]	KINOMEscan binding CDC42BPB/MRCKB [13]	KINOMEscan binding CDC42BPG/DMPK2 [15]	KINOMEscan binding CSNK1E [17]	also measured
Cc1cccc(-c2nc(Nc3ccc4nn(C)cc4c3)c3ccccc3n2)n1 [NK167]	–	–	–	–	–	–	KINOMEscan TGFBR2 [1]: 0; KINOMEscan CIT [2]: 3; KINOMEscan SRPK2 [3]: 0; KINOMEscan BMPR1B [4]: 0; KINOMEscan CSNK1E [5]: 8; EC50 [6]: 1000 nM
Cc1cccc(-c2nc(C)cc(Nc3ccncc3)n2)n1 [GSK257997]	0.025 µM	85%	13%	81%	89%	42%	KINOMEscan binding MINK1/MINK [7]: 6%; KINOMEscan binding MAPK10/JNK3 [10]: 32%; KINOMEscan binding MAPK9/JNK2 [11]: 43%; KINOMEscan binding TGFBR1 [14]: 100%; KINOMEscan binding STK10/LOK [16]: 0%
Cc1cccc(-c2nc(Nc3ccc4nn[nH]c4c3)c3ccccc3n2)n1 [GW867587]	0.59 µM	66%	5%	2%	0%	0%	KINOMEscan binding MINK1/MINK [7]: 0%; KINOMEscan binding MAPK10/JNK3 [10]: 0%; KINOMEscan binding MAPK9/JNK2 [11]: 0%; KINOMEscan binding TGFBR1 [14]: 32%; KINOMEscan binding STK10/LOK [16]: 0%
Cc1cccc(-c2nc(Nc3ccc4c(cnn4C)c3)c3ccccc3n2)n1 [GW876731]	–	90.2%	0%	34%	22%	37%	–
Cc1cccc(-c2nc(Nc3ccncc3)c3ccccc3n2)n1 [NK215]	–	–	–	–	–	–	KINOMEscan PRKD3 ([9]; kinase PRKD3, Published KINOMEscan, ref original PKIS2 published data): 69; KINOMEscan MTOR ([12]; MTOR, Published KINOMEscan, ref original PKIS2 published data): 50; KINOMEscan CDC42BPB/MRCKB [13]: 63; KINOMEscan CDC42BPG/DMPK2 [15]: 76; KINOMEscan CSNK1E ([17]; CSNK1E, Published KINOMEscan, ref original PKIS2 published data): 77
Cc1cccc(-c2nc(Nc3cccc(C(N)=O)c3)c3ccccc3n2)n1 [GW876019]	–	87%	35%	32%	0%	15%	–
Cc1cccc(-c2nc(N(C)c3ccc4ncsc4c3)c3ccccc3n2)n1 [NK-161]	–	–	–	–	–	–	KINOMEscan TGFBR2 [1]: 0; KINOMEscan CIT [2]: 0; KINOMEscan SRPK2 [3]: 0; KINOMEscan BMPR1B [4]: 8; KINOMEscan CSNK1E [5]: 7; EC50 [6]: 1100 nM
Cc1csc(-c2nc(Nc3ccncc3)c3ccccc3n2)n1 [GW869640]	–	71%	74%	44%	35%	41%	–
Clc1cccc(-c2nc(Nc3ccncc3)c3ccccc3n2)c1 [GW873004]	0.65 µM	44%	36%	42%	84%	23%	–
